{"source": "paper PMC10224427", "about": "“A Novel Flow Cytometry-Based Assay for the Identification of HCN4 CNBD Ligands” (Pharmaceuticals, 2023)", "key": {"[1]": {"molecular_target": "T1, HCN4 C-Linker-CNBD (Homo sapiens, UniProt Q9Y3Q4)", "T1 construct": "the passenger domain human HCN4 C-Linker-CNBD; CtxB signal peptide (N, cleaved yes); His-Tag (N); made in house; host or cells: E. coli BL21 (OmpT-deficient)", "T1 sequence (Q9Y3Q4 521-723 limits assumed)": "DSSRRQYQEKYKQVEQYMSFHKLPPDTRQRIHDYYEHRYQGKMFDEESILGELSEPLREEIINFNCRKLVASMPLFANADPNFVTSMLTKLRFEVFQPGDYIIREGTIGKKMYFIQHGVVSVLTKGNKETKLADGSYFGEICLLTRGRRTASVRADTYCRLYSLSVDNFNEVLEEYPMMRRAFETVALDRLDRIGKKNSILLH", "experiment": "Competitive binding assay, displacement of 8-Fluo-cAMP, flow cytometry"}, "[2]": {"molecular_target": "purified HCN4 C-Linker-CNBD", "conditions": "SPR; cited from earlier work"}, "[3]": {"molecular_target": "purified HCN4 C-Linker-CNBD", "conditions": "ITC; cited from earlier work"}, "[4]": {"molecular_target": "HCN4 MBP-C-Linker-CNBD fusion protein", "parameters": "method as in PMID 24605759", "conditions": "ITC; cited from earlier work"}, "[5]": {"molecular_target": "purified HCN4 C-Linker-CNBD", "conditions": "cited from earlier work"}, "[6]": {"molecular_target": "purified HCN4 MBP-C-Linker-CNBD fusion protein", "conditions": "FP, cited from earlier work"}, "[7]": {"molecular_target": "T1, HCN4 C-Linker-CNBD", "experiment": "Flow cytometry-based ligand-binding assay, 8-Fluo-cAMP on E. coli surface-displayed protein"}, "[8]": {"molecular_target": "maltose-binding protein (MBP) (Escherichia coli, UniProt P0AEX9)", "conditions": "up to 4 µM 8-Fluo-cAMP"}, "[9]": {"conditions": "50 nM 8-Fluo-cAMP, 100 µM competitor"}, "[10]": {"conditions": "ref 47, read-out: binding affinity (Kd)"}}, "note": "Several values for one entry are separate records, joined by “and”; a condition that tells them apart may be missing. Identical values can stand only once. Entries after “also recorded” stand apart in the source; their conditions may differ. Like-named read-outs stand apart in the source and are kept apart here.", "data": [{"compound": "NCC1(CC(=O)O)CCCCC1", "note": "[gabapentin, Gabapentin]", "values": [{"measurement": "effect on 8-Fluo-cAMP binding to the CNBD (mFI)", "setting": "[1]; [9]", "value": "no influence; also recorded: no impact"}]}, {"compound": "Nc1ncnc2c1ncn2C1OC2COP(=O)(O)OC2C1O", "note": "(stereo not drawn) [cAMP, Adenosine-3′,5′-cyclic monophosphate]", "values": [{"measurement": "Kd", "setting": "[2]", "value": 1.5, "unit": "µM"}, {"measurement": "effect on 8-Fluo-cAMP binding to the CNBD (mFI)", "setting": "[1]", "value": "decreased mFI"}, {"measurement": "IC50", "setting": "[1]; IC50 for 8-Fluo-cAMP binding", "value": "13 µM and 16 µM and 23 µM and 27 µM"}, {"measurement": "Ki", "setting": "[1]; Ki determined graphically", "value": 11.7, "unit": "µM"}, {"measurement": "Ki", "setting": "[1]; calculated Ki", "value": "8.5 ± 2", "unit": "µM"}, {"measurement": "Kd", "setting": "[3]", "value": 0.8, "unit": "µM"}]}, {"compound": "Nc1ncnc2c1ccn2[C@@H]1O[C@@H]2COP(=O)(O)O[C@H]2[C@H]1O", "note": "[7-CH-cAMP, 7-Deazaadenosine-3,5′-cyclic monophosphate]", "values": [{"measurement": "Kd", "setting": "[4]", "value": 0.03, "unit": "µM"}, {"measurement": "IC50", "setting": "[1]; 50 nM 8-Fluo-cAMP, read-out: IC50 for 8-Fluo-cAMP binding", "value": "0.23 ± 0.041", "unit": "µM"}, {"measurement": "Ki", "setting": "[1]; 50 nM 8-Fluo-cAMP, read-out: inhibitory constant (Ki), calculated", "value": "0.159 ± 0.029", "unit": "µM"}]}, {"compound": "Nc1ncnc2c1nc(SCCNC(=S)Nc1ccc(-c3c4ccc(=O)cc-4oc4cc(O)ccc34)c(C(=O)O)c1)n2[C@@H]1O[C@@H]2COP(=O)(O)O[C@H]2[C@H]1O", "note": "[8-Fluo-cAMP, 8-(2-[Fluoresceinyl]aminoethylthio)adenosine-3′,5′-cyclic monophosphate]", "values": [{"measurement": "Kd", "setting": "[5]; ref 9, read-out: binding affinity (Kd)", "value": 0.28, "unit": "µM"}, {"measurement": "Kd", "setting": "[5]; [10]", "value": 0.167, "unit": "µM"}, {"measurement": "Kd", "setting": "[6]; ref 35, read-out: binding affinity (Kd)", "value": 0.189, "unit": "µM"}, {"measurement": "Kd", "setting": "[6]; [10]", "value": 0.111, "unit": "µM"}, {"measurement": "concentration at which saturation of binding is attained", "setting": "[7]; mFI of cells displaying HCN4 C-Linker-CNBD", "value": "around 500 nM"}, {"measurement": "Kd", "setting": "[7]; surface-displayed HCN4 C-Linker-CNBD on E. coli, 1 nM-4 µM ligand, 30 min, 30 °C, read-out: dissociation constant (Kd)", "value": "0.173 ± 0.046", "unit": "µM"}, {"measurement": "unspecific binding to surface-displayed MBP (mFI)", "setting": "[8]", "value": "only a marginal increase in mFI; also recorded: no unspecific binding"}]}, {"compound": "COc1cc2c(cc1OC)CC(=O)N(CCCN(C)C[C@H]1Cc3cc(OC)c(OC)cc31)CC2", "note": "[ivabradine, Ivabradine]", "values": [{"measurement": "effect on 8-Fluo-cAMP binding to the CNBD (mFI)", "setting": "[1]; [9]", "value": "no impact on ligand binding; also recorded: no influence"}]}]}
